According to US20250230193A1, “CYCLIC COMPOUND HAVING SELECTIVE KRAS INHIBITORY EFFECT ON HRAS AND NRAS” (CHUGAI SEIYAKU KABUSHIKI KAISHA, priority 2022, published 2025):
*1 amine or outer side, *2 acyl side, *3 side chain or, on linkers, in order; H or OH if unused. Where a SMILES comes first, the peptide text is derived from it. Bridges are numbered along the chain shown (N, C = ends). [ ]: non-standard residue; d: D form. The star is where a group is joined. hPhe(3,5-F2-4-CF3) = N[C@@H](CCc1cc(F)c(C(F)(F)F)c(F)c1)C(=O)O; hPhe(3-Cl-4-CF3) = N[C@@H](CCc1ccc(C(F)(F)F)c(Cl)c1)C(=O)O; NPrPhe(4-CF3) = CCCN[C@@H](Cc1ccc(C(F)(F)F)cc1)C(=O)O; X29 = Cc1ccc(C[C@@H](C(=O)[*:2])N(CC2CCCC2)[*:1])cc1; NEtPhe(4-Me) = CCN[C@@H](Cc1ccc(C)cc1)C(=O)O; NMeGly(cPent) = CN[C@H](C(=O)O)C1CCCC1; Gly(cPent) = N[C@H](C(=O)O)C1CCCC1; αMeCha = C[C@](N)(CC1CCCCC1)C(=O)O; Hyp = O=C(O)[C@@H]1C[C@@H](O)CN1; NMeD = CN[C@@H](CC(=O)O)C(=O)O; NMeL = CN[C@@H](CC(C)C)C(=O)O; NMeAbu = CC[C@H](NC)C(=O)O; Morpholide = C1CN(*)CCO1; NMeA = CN[C@@H](C)C(=O)O; Ac5c = NC1(C(=O)O)CCCC1; Aze = O=C(O)[C@@H]1CCN1; X45 = C1CCC(*)OC1; Sar = CNCC(=O)O

What was measured:
[1] = molecular target: GDP-bound NRAS wild-type protein (Homo sapiens, UniProt P01111); experiment: Binding to NRAS by surface plasmon resonance (SPR), Single Cycle Kinetics; details: SPR
[2] = molecular target: GDP-bound HRAS wild-type protein (Homo sapiens, UniProt P01112); experiment: Binding to HRAS by surface plasmon resonance (SPR), Single Cycle Kinetics; details: SPR
[3] = GDP-bound NRAS wild-type vs GDP-bound KRAS wild-type
[4] = GDP-bound HRAS wild-type vs GDP-bound KRAS wild-type
[5] = KD ratio, GDP-bound NRAS wild-type vs GDP-bound KRAS wild-type
[6] = KD ratio, GDP-bound HRAS wild-type vs GDP-bound KRAS wild-type

GDP-bound HRAS wild-type protein, sequence (P01112 whole entry): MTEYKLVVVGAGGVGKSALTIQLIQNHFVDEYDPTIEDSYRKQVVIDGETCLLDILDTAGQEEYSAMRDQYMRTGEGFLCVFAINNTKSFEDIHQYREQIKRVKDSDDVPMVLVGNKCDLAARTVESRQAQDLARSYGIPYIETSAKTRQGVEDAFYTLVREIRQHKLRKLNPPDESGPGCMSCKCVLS
GDP-bound NRAS wild-type protein, sequence (P01111 whole entry): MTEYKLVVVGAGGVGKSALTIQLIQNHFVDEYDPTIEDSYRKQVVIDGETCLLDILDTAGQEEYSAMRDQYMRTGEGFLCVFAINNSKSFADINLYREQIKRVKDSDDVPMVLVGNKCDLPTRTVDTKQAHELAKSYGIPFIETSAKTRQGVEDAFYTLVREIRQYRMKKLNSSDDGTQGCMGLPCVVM

Row | SMILES | NRAS/KRAS (ratio of KD for GDP-bound NRAS wild-type to KD for KRAS) [1] | HRAS/KRAS (ratio of KD for GDP-bound HRAS wild-type to KD for KRAS) [2] | NRAS/KRAS (ratio of KD value with respect to GDP-bound NRAS wild-type protein to KD value with respect to KRAS) [1] | HRAS/KRAS (ratio of KD value with respect to GDP-bound HRAS wild-type protein to KD value with respect to KRAS) [2] | also measured
1 | CCC[C@H]1C(=O)N[C@@H]([C@@H](C)CC)C(=O)N(C2CC2)CC(=O)N(C)[C@H]2C/C=C\CCN(C2=O)[C@@H](Cc2ccc(C)cc2)C(=O)N(C)CC(=O)N[C@@H](CCc2ccc(C(F)(F)F)c(OC)c2)C(=O)N2C[C@H](OCC)C[C@H]2C(=O)N(C)C2(CCC2)C(=O)N(C)[C@@H](C2CCCC2)C(=O)N(C)[C@H](C(=O)N(C)C)CC(=O)N1C [PP2328, (2S,8S,12R,14S,20S,23S,27S,30S,36S,38Z)-20-cyclopentyl-32-cyclopropyl-12-ethoxy-8-[2-[3-methoxy-4-(trifluoromethyl)phenyl]ethyl]-N,N,4,16,19,22,26,35-octamethyl-30-[(1S)-1-methylpropyl]-3,6,9,15,18,21,25,28,31,34,42-undecaoxo-27-propyl-2-(p-tolylmethyl)spiro[1,4,7,10,16,19,22,26,29,32,35-undecazatricyclo[34.5.1.0^10,14]dotetracont-38-ene-17,1′-cyclobutane]-23-carboxamide] | – | – | – | – | NRAS/KRAS (ratio of KD value with respect to NRAS to KD value with respect to KRAS) [1, 3]: A (a compound having 10 or more and less than 20 is denoted as A); HRAS/KRAS (ratio of KD value with respect to HRAS to KD value with respect to KRAS) [2, 4]: A (a compound having 10 or more and less than 20 is denoted as A)
2 | CC[C@H](C)[C@@H]1NC(=O)[C@H](CC(C)C)N(C)C(=O)C[C@@H](C(=O)N2CCOCC2)N(C)C(=O)[C@H](C2CCCC2)N(C)C(=O)C2(CCCC2)NC(=O)[C@@H]2CCCN2C(=O)[C@H](CCc2ccc(C(F)(F)F)c(Cl)c2)NC(=O)CN(C)C(=O)[C@H](Cc2ccc(C)cc2)N(CC2CCCC2)C(=O)[C@@H]2CCN2C(=O)[C@H](C)N(C)C1=O [PP0084] ([NMeL]I[NMeA][Aze][X29][Sar][hPhe(3-Cl-4-CF3)]P[Ac5c][NMeGly(cPent)][NMeD]-Morpholide; lactam N-11) | C (A compound having a KD ratio of 0.1 or more and less than 3 is denoted as C) | B (a compound having 3 or more and less than 10 is denoted as B) | – | – | –
3 | CCC[C@H]1C(=O)N[C@@H]([C@@H](C)CC)C(=O)N(C)CC(=O)N(C)[C@H]2C/C=C\CCN(C2=O)[C@@H](Cc2ccc(C(F)(F)F)cc2)C(=O)N(C)CC(=O)N[C@@H](CCc2cc(F)c(C(F)(F)F)c(F)c2)C(=O)N2C[C@H](OCC)C[C@H]2C(=O)NC2(CCC2)C(=O)N(C)[C@@H](C2CCCC2)C(=O)N(CCC)[C@H](C(=O)N(C)C)CC(=O)N1C [PP1769] | – | – | – | – | NRAS/KRAS (ratio of KD value for NRAS to KD value for KRAS) [1, 5]: A (a compound having 10 or more and less than 20 is denoted as A); HRAS/KRAS (ratio of KD value for HRAS to KD value for KRAS) [2, 6]: A (a compound having 10 or more and less than 20 is denoted as A)
4 | CCO[C@@H]1C[C@H]2C(=O)NC3(CCC3)C(=O)N(C)[C@@H](C3CCCC3)C(=O)N(C)[C@H](C(=O)N(C)C)CC(=O)N(C)[C@@H](Cc3ccccc3)C(=O)N[C@@H]([C@@H](C)CC)C(=O)N(C)CC(=O)N(C)[C@H]3CCCCCN(C3=O)[C@@H](Cc3ccc(F)cc3)C(=O)N(C)CC(=O)N[C@@H](CCc3cc(F)c(C(F)(F)F)c(F)c3)C(=O)N2C1 [PP1195] | – | – | – | – | NRAS/KRAS (ratio of KD value with respect to NRAS to KD value with respect to KRAS) [1, 5]: B (a compound having 3 or more and less than 10 is denoted as B); HRAS/KRAS (ratio of KD value with respect to HRAS to KD value with respect to KRAS) [2, 6]: B (a compound having 3 or more and less than 10 is denoted as B)
5 | CCCN1C(=O)[C@@H]2CCN2C(=O)[C@H](C)N(C)C(=O)[C@H](C2CCCC2)NC(=O)[C@H](CC(C)C)N(C)C(=O)C[C@@H](C(=O)N2CCOCC2)N(C)C(=O)[C@H](C2CCCC2)N(C)C(=O)C2(CCCC2)NC(=O)[C@@H]2CCCN2C(=O)[C@H](CCc2ccc(C(F)(F)F)c(Cl)c2)NC(=O)CN(C)C(=O)[C@@H]1Cc1ccc(C(F)(F)F)cc1 [PP0272] ([NMeL][Gly(cPent)][NMeA][Aze][NPrPhe(4-CF3)][Sar][hPhe(3-Cl-4-CF3)]P[Ac5c][NMeGly(cPent)][NMeD]-Morpholide; lactam N-11) | C (A compound having a KD ratio of 0.1 or more and less than 3 is denoted as C) | B (a compound having 3 or more and less than 10 is denoted as B) | – | – | –
6 | CC[C@H](C)[C@@H]1NC(=O)[C@H](CC(C)C)N(C)C(=O)C[C@@H](C(=O)N2CCOCC2)N(C)C(=O)[C@H](C2CCCCC2)N(C)C(=O)C2(CCCC2)NC(=O)[C@@H]2CCCN2C(=O)[C@H](CCc2cc(F)c(C(F)(F)F)c(F)c2)NC(=O)CN(C)C(=O)[C@H](Cc2ccc(C(F)(F)F)cc2)N2CCCCC[C@@H](C2=O)N(C)C(=O)CN(C)C1=O [PP0505] | – | – | B (a compound having 3 or more and less than 10 is denoted as B) | B (a compound having 3 or more and less than 10 is denoted as B) | –
7 | CCO[C@@H]1C[C@H]2C(=O)NC3(CCC3)C(=O)N(C)[C@@H](C3CCCC3)C(=O)N(C)[C@H](C(=O)N3CCOCC3)CC(=O)N(C)[C@@H](CC3CCCC3)C(=O)N[C@@H]([C@@H](C)CC)C(=O)N(C)CC(=O)N(C)[C@H]3CCCCN(C3=O)[C@@H](Cc3ccc(C(F)(F)F)cc3)C(=O)N(C)CC(=O)N[C@@H](CCc3cc(F)c(C(F)(F)F)c(F)c3)C(=O)N2C1 [PP0715] | – | – | C (A compound having a KD ratio of 0.1 or more and less than 3 is denoted as C) | B (a compound having 3 or more and less than 10 is denoted as B) | –
8 | CCO[C@@H]1C[C@H]2C(=O)NC3(CC(C)(C)C3)C(=O)N(C)[C@@H](C(CC)CC)C(=O)N(C)[C@H](C(=O)N3CCCC3)CC(=O)N(C)[C@@H](CC)C(=O)N[C@@H]([C@@H](C)CC)C(=O)N(C)CC(=O)N(C)[C@H]3C/C=C\CCN(C3=O)[C@@H](Cc3ccc(C)cc3)C(=O)N(C)CC(=O)N[C@@H](CCc3cc(F)c(C(F)(F)F)c(F)c3)C(=O)N2C1 [PP2149] | – | – | – | – | NRAS/KRAS (ratio of KD value with respect to NRAS to KD value with respect to KRAS) [1, 3]: A (a compound having 10 or more and less than 20 is denoted as A); HRAS/KRAS (ratio of KD value with respect to HRAS to KD value with respect to KRAS) [2, 4]: A (a compound having 10 or more and less than 20 is denoted as A)
9 | CCCN1C(=O)CN(C)C(=O)CN(C)C(=O)[C@H]([C@@H](C)CC)NC(=O)[C@H](CC)N(C)C(=O)C[C@@H](C(=O)N2CCOCC2)N(C)C(=O)[C@H](C2CCCC2)N(C)C(=O)C2(CCCC2)NC(=O)[C@@H]2CCCN2C(=O)[C@H](CCc2ccc(C(F)(F)F)c(Cl)c2)NC(=O)CN(C)C(=O)[C@@H]1Cc1ccc(C(F)(F)F)cc1 [PP0190] ([NMeAbu]I[Sar][Sar][NPrPhe(4-CF3)][Sar][hPhe(3-Cl-4-CF3)]P[Ac5c][NMeGly(cPent)][NMeD]-Morpholide; lactam N-11) | B (a compound having 3 or more and less than 10 is denoted as B) | B (a compound having 3 or more and less than 10 is denoted as B) | – | – | –
10 | CCCN(C)C(=O)[C@@H]1CC(=O)N(C)[C@@H](C2CCC2)C(=O)N[C@@H]([C@@H](C)CC)C(=O)N(C)CC(=O)N(C)[C@H]2C/C=C\CCN(C2=O)[C@@H](Cc2ccc(C(F)(F)F)cc2)C(=O)N(C)CC(=O)N[C@@H](CCc2cc(F)c(C(F)(F)F)c(F)c2)C(=O)N2C[C@@H](C)C[C@H]2C(=O)NC2(CCC2)C(=O)N(C)[C@@H](C2CCCC2)C(=O)N1C [PP2083] | – | – | – | – | NRAS/KRAS (ratio of KD value with respect to NRAS to KD value with respect to KRAS) [1, 3]: A (a compound having 10 or more and less than 20 is denoted as A); HRAS/KRAS (ratio of KD value with respect to HRAS to KD value with respect to KRAS) [2, 4]: B (a compound having 3 or more and less than 10 is denoted as B)
11 | CC[C@H](C)[C@@H]1NC(=O)[C@H](CC(C)C)N(C)C(=O)C[C@@H](C(=O)N2CCOCC2)N(C)C(=O)[C@H](C2CCCC2)N(C)C(=O)C2(CCCC2)NC(=O)[C@@H]2C[C@@H](OC3CCCCO3)CN2C(=O)[C@H](CCc2ccc(C(F)(F)F)c(Cl)c2)NC(=O)CN(C)C(=O)[C@H](Cc2ccc(C)cc2)N(CC)C(=O)CN(C)C(=O)CN(C)C1=O (some centres unmarked) [PP0068] ([NMeL]I[Sar][Sar][NEtPhe(4-Me)][Sar][hPhe(3-Cl-4-CF3)][Hyp](X45)[Ac5c][NMeGly(cPent)][NMeD]-Morpholide; lactam N-11) | C (A compound having a KD ratio of 0.1 or more and less than 3 is denoted as C) | C (A compound having a KD ratio of 0.1 or more and less than 3 is denoted as C) | – | – | –
12 | CCCN1C(=O)CN(C)C(=O)CN(C)C(=O)[C@H]([C@@H](C)CC)NC(=O)[C@H](CC(C)C)N(C)C(=O)C[C@@H](C(=O)N2CCOCC2)N(C)C(=O)[C@H](C2CCCC2)N(C)C(=O)[C@](C)(CC2CCCCC2)NC(=O)[C@@H]2CCCN2C(=O)[C@H](CCc2cc(F)c(C(F)(F)F)c(F)c2)NC(=O)CN(C)C(=O)[C@@H]1Cc1ccc(C(F)(F)F)cc1 [PP0760] ([NMeL]I[Sar][Sar][NPrPhe(4-CF3)][Sar][hPhe(3,5-F2-4-CF3)]P[αMeCha][NMeGly(cPent)][NMeD]-Morpholide; lactam N-11) | – | – | B (a compound having 3 or more and less than 10 is denoted as B) | C (A compound having a KD ratio of 0.1 or more and less than 3 is denoted as C) | –
13 | CC[C@H](C)[C@@H]1NC(=O)[C@H](CC(C)C)N(C)C(=O)C[C@@H](C(=O)N2CCOCC2)N(C)C(=O)[C@H](C2CCCC2)N(C)C(=O)C2(CCCC2)NC(=O)[C@@H]2CC(=O)CN2C(=O)[C@H](CCc2cc(F)c(C(F)(F)F)c(F)c2)NC(=O)CN(C)C(=O)[C@H](Cc2ccc(C(F)(F)F)cc2)N2CCCC[C@@H](C2=O)N(C)C(=O)CN(C)C1=O [PP0555] | – | – | B (a compound having 3 or more and less than 10 is denoted as B) | B (a compound having 3 or more and less than 10 is denoted as B) | –
